Experimental data published in patent publication US12599554B2, “Pharmaceutical formulations comprising tadalafil” (KYDES PHARMACEUTICALS, LLC, priority 2020, dated 2026).

Key:
[1] = Solubility of tadalafil in aqueous media and solvents; precipitation on adding water; format: physicochemical
From the text: Tadalafil is soluble in 2-pyrollidone, but the use of 2-pyrollidone as a solvent is limited by color formation, unpalatable taste, and incompatibility with plastic components of metered-dose delivery systems. […] Compatibility with the pumps was improved with water in an amount of at least 10% weight in volume.

[2] = cited from earlier work
[3] = cited from earlier work; remark: listed apart in the source

solubility in 2-pyrollidone ([1]; 2-pyrollidone): soluble
solubility in propylene carbonate ([1]; propylene carbonate): soluble
Structure (SMILES): CN1CC(=O)N2[C@H](c3ccc4c(c3)OCO4)c3[nH]c4ccccc4c3C[C@@H]2C1=O [Tadalafil, (2R,8R)-2-(1,3-benzodioxol-5-yl)-6-methyl-3,6,17-triazatetracyclo[8.7.0.0^3,8.0^11,16]heptadeca-1(10),11,13,15-tetraene-4,7-dione]
solubility in aqueous media [2]: insoluble
bioavailability in humans [3]: 80%
